Laboratory results reported in US6525001B1, “Substituted pyrimidine and pyridine herbicides” (Mid-American Commercialization Corporation, priority 1997, dated 2003).

Experiments:
Format in all cases: in vivo
corn (Zea mays) = test: Test B pre-/postemergence; design: key: 0 is no effect; 10 is complete control; conditions: for Corn plant response rating: Preemergence
How it was run: (§1)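 Seeds were planted and sprayed preemergence, while plants at 2 to 18 cm (1- to 4-leaf stage) were sprayed postemergence at the same time, with test chemical in a non-phytotoxic solvent mixture containing surfactant. After twelve to sixteen days in a greenhouse, injury was rated visually against untreated controls on a 0–10 scale.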

[1] = tested on: velvetleaf (Abutilon theophrasti); test: Test B pre-/postemergence; design: key: 0 is no effect; 10 is complete control
How it was run: as §1

[2] = tested on: broadleaf signalgrass (Brachiaria decumbens); test: Test B pre-/postemergence; design: key: 0 is no effect; 10 is complete control; conditions: for B. signalgrass plant response rating: Preemergence
How it was run: as §1

[3] = tested on: blackgrass (Alopecurus myosuroides); test: Test B pre-/postemergence; design: key: 0 is no effect; 10 is complete control; conditions: for Blackgrass plant response rating: Preemergence
How it was run: as §1

wild oat (Avena fatua) = test: Test B pre-/postemergence; design: key: 0 is no effect; 10 is complete control
How it was run: as §1

[4] = tested on: giant foxtail (Setaria faberii); test: Test B pre-/postemergence; design: key: 0 is no effect; 10 is complete control
How it was run: as §1

[5] = tested on: bedstraw (Galium aparine); test: Test B pre-/postemergence; design: key: 0 is no effect; 10 is complete control; conditions: Postemergence
How it was run: as §1

soybean (Glycine max) = test: Test B pre-/postemergence; design: key: 0 is no effect; 10 is complete control
How it was run: as §1

[6] = tested on: cocklebur (Xanthium strumarium); test: Test B pre-/postemergence; design: key: 0 is no effect; 10 is complete control; conditions: for Plant response rating, Cocklebur: Postemergence; for Cocklebur plant response rating: Preemergence
How it was run: as §1

[7] = tested on: pigweed (Amaranthus retroflexus); test: Test B pre-/postemergence; design: key: 0 is no effect; 10 is complete control
How it was run: as §1

[8] = tested on: momingglory (Ipomoea hederacea); test: Test B pre-/postemergence; design: key: 0 is no effect; 10 is complete control
How it was run: as §1

[9] = tested on: sugar beet (Beta vulgaris); test: Test B pre-/postemergence; design: key: 0 is no effect; 10 is complete control
How it was run: as §1

[10] = tested on: crabgrass (Digitaria sanguinalis); test: Test B pre-/postemergence; design: key: 0 is no effect; 10 is complete control; conditions: for Crabgrass plant response rating: Preemergence
How it was run: as §1

rape (Brassica napus) = test: Test B pre-/postemergence; design: key: 0 is no effect; 10 is complete control
How it was run: as §1

[11] = tested on: wheat (Triticum aestivum); test: Test B pre-/postemergence; design: key: 0 is no effect; 10 is complete control
How it was run: as §1

[12] = tested on: purple nutsedge (Cyperus rotundus); test: Test B pre-/postemergence; design: key: 0 is no effect; 10 is complete control
How it was run: as §1

[13] = tested on: smallflower flatsedge (Cyperus difformis); test: Test B flood test
How it was run: (§2)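 Plants were grown to the 2-leaf stage before treatment with test chemical, then held in a greenhouse for twelve to sixteen days. Injury was visually rated against untreated controls on a 0–10 scale, where 0 is no effect and 10 is complete control.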

[14] = tested on: bamyardgrass (Echinochloa crus-galli); test: Test B flood test
How it was run: as §2

[15] = tested on: duck salad (Heteranthera limosa); test: Test B flood test
How it was run: as §2

rice (Oryza sativa) = test: Test B flood test
How it was run: as §2

[16] = Rate 250 g/ha, Postemergence (so in the source)
[17] = Rate 62 g/ha, Postemergence (flood test)
[18] = Rate 125 g/ha, Postemergence section (flood test species)
[19] = Rate 250 g/ha, Postemergence (flood test species)
[20] = Rate 125 g/ha, Postemergence, flood test

## Cc1cnc(-c2ccc(F)cc2F)nc1Cc1cccc(C(F)(F)F)c1 [Compound 31]
Corn (Zea mays); Rate 62 g/ha, Postemergence
  Plant response rating, Corn: 2
Corn (Zea mays); Rate 62 g/ha
  Corn plant response rating: 0
Corn (Zea mays); Rate 125 g/ha, Postemergence
  Plant response rating, Corn: 2
Corn (Zea mays); Rate 125 g/ha
  Corn plant response rating: 0
Corn (Zea mays); Rate 250 g/ha, Postemergence
  Plant response rating, Corn: 2
Corn (Zea mays); [16]
  Plant response rating, Corn: 1
[1]; Rate 62 g/ha, Postemergence
  Plant response rating, Velvetleaf: 2
[1]; Rate 62 g/ha, Preemergence
  Velvetleaf plant response rating: 0
[1]; Rate 125 g/ha, Postemergence
  Velvetleaf plant response rating: 2
[1]; Rate 125 g/ha, Preemergence
  Plant response rating, Velvetleaf: 0
[1]; Rate 250 g/ha, Postemergence
  Plant response rating, Velvetleaf: 4
[1]; [16]
  Plant response rating, Velvetleaf: 0
[2]; Rate 62 g/ha, Postemergence
  Plant response rating, B. signalgrass: 3
[2]; Rate 62 g/ha
  B. signalgrass plant response rating: 3
[2]; Rate 125 g/ha, Postemergence
  Plant response rating, B. signalgrass: 3
[2]; Rate 125 g/ha
  B. signalgrass plant response rating: 9
[2]; Rate 250 g/ha, Postemergence
  Plant response rating, B. signalgrass: 5
[2]; Rate 250 g/ha, Postemergence as printed in head r139 (second section for compounds 26-50)
  Plant response rating, B. signalgrass: 9
[3]; Rate 62 g/ha, Postemergence
  Plant response rating, Blackgrass: 2
[3]; Rate 62 g/ha
  Blackgrass plant response rating: 1
[3]; Rate 125 g/ha, Postemergence
  Plant response rating, Blackgrass: 2
[3]; Rate 125 g/ha
  Blackgrass plant response rating: 2
[3]; Rate 250 g/ha, Postemergence
  Plant response rating, Blackgrass: 4
[3]; [16]
  Plant response rating, Blackgrass: 3
Wild oat (Avena fatua); Rate 62 g/ha, Postemergence
  Wild oats plant response rating: 2
Wild oat (Avena fatua); Rate 62 g/ha, Preemergence
  Wild oats plant response rating: 0
Wild oat (Avena fatua); Rate 125 g/ha, Postemergence
  Wild oats plant response rating: 3
Wild oat (Avena fatua); Rate 125 g/ha, Preemergence
  Plant response rating, Wild oats: 1
Wild oat (Avena fatua); Rate 250 g/ha, Postemergence
  Plant response rating, Wild oats: 4
Wild oat (Avena fatua); [16]
  Plant response rating, Wild oats: 2
[4]; Rate 62 g/ha, Postemergence
  Plant response rating, Giant foxtail: 2
[4]; Rate 62 g/ha, Preemergence
  Giant foxtail plant response rating: 2
[4]; Rate 125 g/ha, Postemergence
  Giant foxtail plant response rating: 3
[4]; Rate 125 g/ha, Preemergence
  Giant foxtail plant response rating: 5
[4]; Rate 250 g/ha, Postemergence
  Plant response rating, Giant foxtail: 3
[4]; [16]
  Plant response rating, Giant foxtail: 10
[5]; Rate 62 g/ha
  Plant response rating, Bedstraw: 4
[5]; Rate 125 g/ha
  Plant response rating, Bedstraw: 6
[5]; Rate 250 g/ha
  Plant response rating, Bedstraw: 6
Soybean (Glycine max); Rate 62 g/ha, Postemergence
  Plant response rating, Soybean: 4
Soybean (Glycine max); Rate 62 g/ha, Preemergence
  Soybean plant response rating: 0
Soybean (Glycine max); Rate 125 g/ha, Postemergence
  Soybean plant response rating: 4
Soybean (Glycine max); Rate 125 g/ha, Preemergence
  Plant response rating, Soybean: 0
Soybean (Glycine max); Rate 250 g/ha, Postemergence
  Plant response rating, Soybean: 7
Soybean (Glycine max); [16]
  Plant response rating, Soybean: 0
[6]; Rate 62 g/ha
  Plant response rating, Cocklebur: 6
  Cocklebur plant response rating: 0
[6]; Rate 125 g/ha
  Plant response rating, Cocklebur: 6
  Cocklebur plant response rating: 0
[6]; Rate 250 g/ha
  Plant response rating, Cocklebur: 7
[7]; Rate 62 g/ha, Postemergence
  Plant response rating, Redroot pigweed: 8
[7]; Rate 62 g/ha, Preemergence
  Redroot pigweed plant response rating: 1
[7]; Rate 125 g/ha, Postemergence
  Redroot pigweed plant response rating: 9
[7]; Rate 125 g/ha, Preemergence
  Redroot pigweed plant response rating: 2
[7]; Rate 250 g/ha, Postemergence
  Plant response rating, Redroot pigweed: 9
[7]; [16]
  Plant response rating, Redroot pigweed: 3
[8]; Rate 62 g/ha, Postemergence
  Plant response rating, Morningglory: 3
[8]; Rate 62 g/ha, Preemergence
  Morningglory plant response rating: 0
[8]; Rate 125 g/ha, Postemergence
  Morningglory plant response rating: 3
[8]; Rate 125 g/ha, Preemergence
  Morningglory plant response rating: 2
[8]; Rate 250 g/ha, Postemergence
  Plant response rating, Morningglory: 4
[8]; [16]
  Plant response rating, Morningglory: 2
[9]; Rate 62 g/ha, Postemergence
  Plant response rating, Sugarbeets: 10
[9]; Rate 62 g/ha, Preemergence
  Sugarbeets plant response rating: 0
[9]; Rate 125 g/ha, Postemergence
  Sugarbeets plant response rating: 10
[9]; Rate 125 g/ha, Preemergence
  Plant response rating, Sugarbeets: 0
[9]; Rate 250 g/ha, Postemergence
  Plant response rating, Sugarbeets: 10
[9]; [16]
  Plant response rating, Sugarbeets: 3
[10]; Rate 62 g/ha, Postemergence
  Plant response rating, Crabgrass: 4
[10]; Rate 62 g/ha
  Crabgrass plant response rating: 1
[10]; Rate 125 g/ha, Postemergence
  Plant response rating, Crabgrass: 8
[10]; Rate 125 g/ha
  Crabgrass plant response rating: 4
[10]; Rate 250 g/ha, Postemergence
  Plant response rating, Crabgrass: 9
[10]; [16]
  Plant response rating, Crabgrass: 10
Rape (Brassica napus); Rate 62 g/ha, Postemergence
  Plant response rating, Rape: 8
Rape (Brassica napus); Rate 62 g/ha, Preemergence
  Rape plant response rating: 0
Rape (Brassica napus); Rate 125 g/ha, Postemergence
  Rape plant response rating: 8
Rape (Brassica napus); Rate 125 g/ha, Preemergence
  Rape plant response rating: 0
Rape (Brassica napus); Rate 250 g/ha, Postemergence
  Plant response rating, Rape: 9
Rape (Brassica napus); [16]
  Plant response rating, Rape: 1
[11]; Rate 62 g/ha, Postemergence
  Wheat plant response rating: 1
[11]; Rate 62 g/ha, Preemergence
  Wheat plant response rating: 0
[11]; Rate 125 g/ha, Postemergence
  Wheat plant response rating: 3
[11]; Rate 125 g/ha, Preemergence
  Plant response rating, Wheat: 0
[11]; Rate 250 g/ha, Postemergence
  Plant response rating, Wheat: 4
[11]; [16]
  Plant response rating, Wheat: 0
[12]; Rate 62 g/ha, Postemergence
  Plant response rating, Nutsedge: 0
[12]; Rate 62 g/ha, Preemergence
  Nutsedge plant response rating: 0
[12]; Rate 125 g/ha, Postemergence
  Nutsedge plant response rating: 0
[12]; Rate 125 g/ha, Preemergence
  Nutsedge plant response rating: 0
[12]; [16]
  Plant response rating, Nutsedge: 0
[13]; [17]
  Plant response rating, S. Flatsedge: 4
[13]; [18]
  S. Flatsedge plant response rating: 7
[13]; [19]
  Plant response rating, S. Flatsedge: 8
[14]; [17]
  Plant response rating, Barnyardgrass: 2
[14]; [20]
  Plant response rating, Barnyardgrass: 3
[14]; [19]
  Plant response rating, Barnyardgrass: 5
[15]; [17]
  Plant response rating, Ducksalad: 1
[15]; [20]
  Plant response rating, Ducksalad: 2
[15]; [19]
  Plant response rating, Ducksalad: 6
Rice (Oryza sativa); [17]
  Plant response rating, Rice: 1
Rice (Oryza sativa); [18]
  Rice plant response rating: 2
Rice (Oryza sativa); [19]
  Plant response rating, Rice: 3
